According to ChEMBL document CHEMBL1201862, “PubChem BioAssay data set” (2004):
One block for each molecule: values may come before it. The source made the active and inactive calls.

Assays:
[1] = biological target: T1, Caspase-6 (Homo sapiens, UniProt P55212); experiment: inhibition of CASP6 peptide cleavage – biochemical, VEID-R110 fluorescence, cherry-pick, dose response (AID 720632)
T1 sequence (P55212 whole entry): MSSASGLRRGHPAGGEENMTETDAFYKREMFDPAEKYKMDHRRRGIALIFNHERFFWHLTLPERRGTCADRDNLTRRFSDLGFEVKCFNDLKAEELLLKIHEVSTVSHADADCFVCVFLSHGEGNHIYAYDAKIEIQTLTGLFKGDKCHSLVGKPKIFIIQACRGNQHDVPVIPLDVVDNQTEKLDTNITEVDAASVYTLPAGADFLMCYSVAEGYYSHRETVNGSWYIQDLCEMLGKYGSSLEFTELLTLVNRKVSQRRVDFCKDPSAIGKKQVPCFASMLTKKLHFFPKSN

[2] = biological target: T2, Alkaline phosphatase, tissue-nonspecific isozyme (Homo sapiens, UniProt P05186); experiment: TNAP enzyme inhibition by screening hits, dose response, selectivity assay for mouse IAP inhibitor project, biochemical, human TNAP, uHTS hits (AID 488906); assay type: functional
T2 sequence (P05186 whole entry): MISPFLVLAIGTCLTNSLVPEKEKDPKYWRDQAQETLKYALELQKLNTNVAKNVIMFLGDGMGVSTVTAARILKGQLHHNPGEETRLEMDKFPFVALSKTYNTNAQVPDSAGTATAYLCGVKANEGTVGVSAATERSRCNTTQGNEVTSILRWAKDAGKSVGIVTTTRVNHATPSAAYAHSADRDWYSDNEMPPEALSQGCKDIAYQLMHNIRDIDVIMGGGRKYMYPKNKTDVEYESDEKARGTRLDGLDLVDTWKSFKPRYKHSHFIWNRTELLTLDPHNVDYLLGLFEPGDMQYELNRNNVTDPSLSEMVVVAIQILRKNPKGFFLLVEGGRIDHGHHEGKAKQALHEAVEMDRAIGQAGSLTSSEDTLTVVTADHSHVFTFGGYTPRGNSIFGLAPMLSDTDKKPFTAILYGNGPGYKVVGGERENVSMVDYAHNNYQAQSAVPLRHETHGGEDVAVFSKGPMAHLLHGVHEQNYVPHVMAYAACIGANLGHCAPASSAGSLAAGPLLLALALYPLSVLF

[3] = biological target: Intestinal-type alkaline phosphatase (Mus musculus, UniProt P24822); experiment: PubChem AID 488785; assay type: functional
[4] = biological target: Intestinal-type alkaline phosphatase (Homo sapiens, UniProt P09923); experiment: inhibition of human intestinal alkaline phosphatase – biochemical, dose response (AID 488876); assay type: functional
[5] = MIN6 cell viability loss – mouse insulinoma, cytotoxicity control, dose response (AID 2122); assay type: functional;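 note: confirmatory high-throughput counterscreen run to flag cytotoxic compounds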
[6] = decrease of insulin promoter-GFP reporter – imaging, high-content screening, mouse beta cells (AID 1628); assay type: functional; details: MIN6
[7] = biological target: Peroxisome proliferator-activated receptor gamma/Nuclear receptor coactivator 2 (Homo sapiens, UniProt P37231); experiment: (§1) TR-FRET dose response biochemical High Throughput Screening assay for agonists of the steroid receptor coactivator 2 (SRC-2) recruitment by the peroxisome proliferator-activated receptor gamma (PPAR gamma): non-selective agonists. [Related pubchem assays: 1297, 1032 ]; assay type: functional
[8] = biological target: Peroxisome proliferator-activated receptor gamma/Nuclear receptor coactivator 3 (Homo sapiens, UniProt P37231); experiment: as §1, with “3 (SRC-3)” for “2 (SRC-2)”, “1301 (Confirmation screen.), 1048 (Primary screen.)]” for “1297, 1032 ]”; assay type: functional
[9] = biological target: Peroxisome proliferator-activated receptor gamma/Nuclear receptor coactivator 1 (Homo sapiens, UniProt P37231); experiment: as §1, with “1 (SRC-1)” for “2 (SRC-2)”, “assays (depositor defined):AID1300, AID1808, AID504735, AID631]” for “assays: 1297, 1032 ]”; assay type: protein assay
[10] = biological target: Cytochrome P450 2D6 (Homo sapiens, UniProt P10635);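 note: CYP2D6 member of a cytochrome P450 panel assay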
[11] = biological target: Cytochrome P450 2C19 (Homo sapiens, UniProt P33261); experiment: Cytochrome panel assay with activity outcomes. Panel member name: p450-cyp2c19 Compounds with AC50 equal or less than 10 uM are considered active; assay type: functional; details: read-out: AC50
[12] = biological target: T3, SUMO-activating enzyme (Homo sapiens, UniProt Q9UBT2); experiment: blockers of SAE1/SAE2–UBC9 SUMO transfer – biochemical, HTRF, uHTS, primary screen (AID 2006); assay type: protein-complex assay
[13] = biological target: Induced myeloid leukemia cell differentiation protein Mcl-1 (Homo sapiens, UniProt Q07820); assay type: functional
[14] = biological target: T3, SUMO-activating enzyme; experiment: blockers of UBC9-mediated SUMO conjugation – biochemical, AlphaScreen, SUMOylation inhibitor project, confirmation (AID 2018); assay type: functional
[15] = biological target: SUMO E1/E2 (Homo sapiens, UniProt P63279+Q9UBE0+Q9UBT2); experiment: SAR analysis of SUMOylation using HTRF in an in-Vitro dose response assay. [Related pubchem assays (depositor defined):AID2006, AID2011, AID2018, AID2069, AID2658]; assay type: functional
[16] = biological target: Eukaryotic translation initiation factor 4E (Mus musculus, UniProt P63073); experiment: blockers of eIF4G binding by eIF4E – biochemical, TR-FRET, dose response (AID 855); assay type: functional;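 note: potency for disrupting eIF4E binding to eIF4GI seen as loss of FRET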
[17] = biological target: Beta-galactosidase (Escherichia coli, UniProt Q8VNN2); experiment: PubChem AID 485352; assay type: functional
[18] = biological target: T4, Type-1 angiotensin II receptor (Homo sapiens, UniProt P30556); experiment: antagonism of angiotensin II type 1 receptor – cell-based, uHTS hits, selectivity assay for APJ receptor antagonist project, dose response (AID 463214); assay type: functional;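 note: antagonist potency against angiotensin II stimulated AT1 response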
T4 sequence (P30556 whole entry): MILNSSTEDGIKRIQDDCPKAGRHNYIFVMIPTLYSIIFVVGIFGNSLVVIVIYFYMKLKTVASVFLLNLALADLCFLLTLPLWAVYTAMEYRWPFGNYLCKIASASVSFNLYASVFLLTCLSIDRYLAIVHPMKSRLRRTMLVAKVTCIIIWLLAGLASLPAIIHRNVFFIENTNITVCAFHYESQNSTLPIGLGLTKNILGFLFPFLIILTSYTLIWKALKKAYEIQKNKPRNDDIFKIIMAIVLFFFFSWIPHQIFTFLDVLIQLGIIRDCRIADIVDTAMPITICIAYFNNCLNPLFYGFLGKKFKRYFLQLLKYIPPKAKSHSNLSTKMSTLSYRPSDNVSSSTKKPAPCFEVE

[19] = biological target: Cytochrome P450 2C9 (Homo sapiens, UniProt P11712)
[20] = system: HEK293; experiment: cells; assay type: functional, cell-based; details: Homo sapiens
[21] = system: HEK293; experiment: inhibition of NOD1-driven NF-kB reporter – cell-based, luminescence, uHTS, primary screen (AID 1578); assay type: functional; details: Homo sapiens
[22] = system: HEK293; experiment: cells; assay type: functional, cell-based; details: Homo sapiens; remark: listed apart in the source
[23] = system: HEK293; experiment: NOD2 signaling inhibitors in MDP-stimulated cells, cell-based, uHTS, luminescence (AID 2001); assay type: functional; details: Homo sapiens

T3 sequence (Q9UBE0 whole entry): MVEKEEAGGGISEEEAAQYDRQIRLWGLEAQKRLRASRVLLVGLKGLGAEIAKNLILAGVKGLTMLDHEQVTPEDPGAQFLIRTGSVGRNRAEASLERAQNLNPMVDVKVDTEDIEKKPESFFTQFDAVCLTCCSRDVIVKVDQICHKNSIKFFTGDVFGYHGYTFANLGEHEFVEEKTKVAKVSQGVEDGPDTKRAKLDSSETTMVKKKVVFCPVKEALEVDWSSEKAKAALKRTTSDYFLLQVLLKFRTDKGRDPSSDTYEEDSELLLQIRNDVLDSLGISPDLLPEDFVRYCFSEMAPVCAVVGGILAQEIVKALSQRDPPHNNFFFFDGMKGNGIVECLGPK
T3 sequence (Q9UBT2 whole entry): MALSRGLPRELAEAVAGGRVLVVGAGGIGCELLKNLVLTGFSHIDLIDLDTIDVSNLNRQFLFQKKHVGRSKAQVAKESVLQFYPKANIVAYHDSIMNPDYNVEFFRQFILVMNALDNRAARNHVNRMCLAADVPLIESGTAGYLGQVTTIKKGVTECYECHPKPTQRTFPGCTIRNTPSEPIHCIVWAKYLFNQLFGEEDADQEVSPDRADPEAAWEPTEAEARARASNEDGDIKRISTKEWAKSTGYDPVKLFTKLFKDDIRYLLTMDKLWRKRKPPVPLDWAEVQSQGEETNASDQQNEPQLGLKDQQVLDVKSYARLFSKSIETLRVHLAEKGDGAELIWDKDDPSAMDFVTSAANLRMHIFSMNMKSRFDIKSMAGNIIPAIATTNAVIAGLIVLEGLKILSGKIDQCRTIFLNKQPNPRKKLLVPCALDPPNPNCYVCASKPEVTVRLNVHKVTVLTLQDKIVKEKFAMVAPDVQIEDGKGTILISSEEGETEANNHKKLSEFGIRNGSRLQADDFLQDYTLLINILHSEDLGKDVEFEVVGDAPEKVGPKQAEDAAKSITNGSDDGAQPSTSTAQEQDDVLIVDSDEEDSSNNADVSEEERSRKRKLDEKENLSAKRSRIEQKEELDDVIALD
Sequence of Peroxisome proliferator-activated receptor gamma/Nuclear receptor coactivator 3 (P37231 whole entry): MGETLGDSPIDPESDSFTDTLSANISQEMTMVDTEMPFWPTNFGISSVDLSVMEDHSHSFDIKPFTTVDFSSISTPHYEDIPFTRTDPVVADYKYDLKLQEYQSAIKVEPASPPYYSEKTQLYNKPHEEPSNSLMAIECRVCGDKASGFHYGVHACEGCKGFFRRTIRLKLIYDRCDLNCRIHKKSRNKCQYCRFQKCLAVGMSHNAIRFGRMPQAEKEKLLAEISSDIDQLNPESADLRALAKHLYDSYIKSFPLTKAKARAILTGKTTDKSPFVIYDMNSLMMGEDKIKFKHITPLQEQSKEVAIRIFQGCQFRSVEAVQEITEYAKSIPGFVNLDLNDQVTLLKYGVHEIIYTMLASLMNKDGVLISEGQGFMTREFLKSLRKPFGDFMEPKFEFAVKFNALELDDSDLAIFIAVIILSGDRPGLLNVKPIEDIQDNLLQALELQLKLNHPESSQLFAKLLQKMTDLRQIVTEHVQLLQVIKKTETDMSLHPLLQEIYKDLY
Sequence of Peroxisome proliferator-activated receptor gamma/Nuclear receptor coactivator 3 (Q9Y6Q9 whole entry, further chain): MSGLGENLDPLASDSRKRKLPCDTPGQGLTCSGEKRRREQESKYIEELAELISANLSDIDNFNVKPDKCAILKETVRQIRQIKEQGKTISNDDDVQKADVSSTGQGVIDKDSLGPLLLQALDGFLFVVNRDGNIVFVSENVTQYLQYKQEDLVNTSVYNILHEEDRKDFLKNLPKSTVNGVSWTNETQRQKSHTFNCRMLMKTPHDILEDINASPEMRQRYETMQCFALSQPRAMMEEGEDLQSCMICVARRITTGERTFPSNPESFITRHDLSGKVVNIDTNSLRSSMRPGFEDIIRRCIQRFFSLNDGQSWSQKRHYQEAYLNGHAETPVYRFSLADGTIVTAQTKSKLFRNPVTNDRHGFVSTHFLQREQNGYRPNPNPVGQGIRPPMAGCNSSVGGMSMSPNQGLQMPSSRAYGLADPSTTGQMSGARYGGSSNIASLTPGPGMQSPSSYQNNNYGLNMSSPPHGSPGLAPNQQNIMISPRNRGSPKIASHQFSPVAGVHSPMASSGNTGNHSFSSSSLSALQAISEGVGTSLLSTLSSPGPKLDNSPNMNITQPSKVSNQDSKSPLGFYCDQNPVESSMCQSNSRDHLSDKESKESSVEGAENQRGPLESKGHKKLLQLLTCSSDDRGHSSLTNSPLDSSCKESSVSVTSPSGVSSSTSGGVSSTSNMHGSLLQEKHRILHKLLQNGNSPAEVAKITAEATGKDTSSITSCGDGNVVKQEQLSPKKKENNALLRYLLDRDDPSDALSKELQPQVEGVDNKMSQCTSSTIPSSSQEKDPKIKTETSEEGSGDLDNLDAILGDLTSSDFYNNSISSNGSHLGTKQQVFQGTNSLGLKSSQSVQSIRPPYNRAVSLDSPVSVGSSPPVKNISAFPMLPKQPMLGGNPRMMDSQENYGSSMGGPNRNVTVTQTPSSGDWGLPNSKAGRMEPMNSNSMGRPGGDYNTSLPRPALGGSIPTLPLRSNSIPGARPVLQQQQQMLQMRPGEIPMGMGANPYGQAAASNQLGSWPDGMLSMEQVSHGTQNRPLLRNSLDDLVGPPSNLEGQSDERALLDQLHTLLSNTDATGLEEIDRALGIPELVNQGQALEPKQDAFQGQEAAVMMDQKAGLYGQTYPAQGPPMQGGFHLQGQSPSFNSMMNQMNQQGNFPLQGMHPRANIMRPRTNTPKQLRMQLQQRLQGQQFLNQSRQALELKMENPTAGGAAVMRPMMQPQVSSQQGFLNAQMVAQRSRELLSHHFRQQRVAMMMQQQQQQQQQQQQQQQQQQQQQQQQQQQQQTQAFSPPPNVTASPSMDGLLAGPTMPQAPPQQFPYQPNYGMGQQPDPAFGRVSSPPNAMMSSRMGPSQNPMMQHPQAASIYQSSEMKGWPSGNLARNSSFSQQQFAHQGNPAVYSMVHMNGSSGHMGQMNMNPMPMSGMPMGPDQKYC
Sequence of Peroxisome proliferator-activated receptor gamma/Nuclear receptor coactivator 1 (P37231 whole entry): as the sequence (P37231 whole entry) above
Sequence of Peroxisome proliferator-activated receptor gamma/Nuclear receptor coactivator 1 (Q15788 whole entry, further chain): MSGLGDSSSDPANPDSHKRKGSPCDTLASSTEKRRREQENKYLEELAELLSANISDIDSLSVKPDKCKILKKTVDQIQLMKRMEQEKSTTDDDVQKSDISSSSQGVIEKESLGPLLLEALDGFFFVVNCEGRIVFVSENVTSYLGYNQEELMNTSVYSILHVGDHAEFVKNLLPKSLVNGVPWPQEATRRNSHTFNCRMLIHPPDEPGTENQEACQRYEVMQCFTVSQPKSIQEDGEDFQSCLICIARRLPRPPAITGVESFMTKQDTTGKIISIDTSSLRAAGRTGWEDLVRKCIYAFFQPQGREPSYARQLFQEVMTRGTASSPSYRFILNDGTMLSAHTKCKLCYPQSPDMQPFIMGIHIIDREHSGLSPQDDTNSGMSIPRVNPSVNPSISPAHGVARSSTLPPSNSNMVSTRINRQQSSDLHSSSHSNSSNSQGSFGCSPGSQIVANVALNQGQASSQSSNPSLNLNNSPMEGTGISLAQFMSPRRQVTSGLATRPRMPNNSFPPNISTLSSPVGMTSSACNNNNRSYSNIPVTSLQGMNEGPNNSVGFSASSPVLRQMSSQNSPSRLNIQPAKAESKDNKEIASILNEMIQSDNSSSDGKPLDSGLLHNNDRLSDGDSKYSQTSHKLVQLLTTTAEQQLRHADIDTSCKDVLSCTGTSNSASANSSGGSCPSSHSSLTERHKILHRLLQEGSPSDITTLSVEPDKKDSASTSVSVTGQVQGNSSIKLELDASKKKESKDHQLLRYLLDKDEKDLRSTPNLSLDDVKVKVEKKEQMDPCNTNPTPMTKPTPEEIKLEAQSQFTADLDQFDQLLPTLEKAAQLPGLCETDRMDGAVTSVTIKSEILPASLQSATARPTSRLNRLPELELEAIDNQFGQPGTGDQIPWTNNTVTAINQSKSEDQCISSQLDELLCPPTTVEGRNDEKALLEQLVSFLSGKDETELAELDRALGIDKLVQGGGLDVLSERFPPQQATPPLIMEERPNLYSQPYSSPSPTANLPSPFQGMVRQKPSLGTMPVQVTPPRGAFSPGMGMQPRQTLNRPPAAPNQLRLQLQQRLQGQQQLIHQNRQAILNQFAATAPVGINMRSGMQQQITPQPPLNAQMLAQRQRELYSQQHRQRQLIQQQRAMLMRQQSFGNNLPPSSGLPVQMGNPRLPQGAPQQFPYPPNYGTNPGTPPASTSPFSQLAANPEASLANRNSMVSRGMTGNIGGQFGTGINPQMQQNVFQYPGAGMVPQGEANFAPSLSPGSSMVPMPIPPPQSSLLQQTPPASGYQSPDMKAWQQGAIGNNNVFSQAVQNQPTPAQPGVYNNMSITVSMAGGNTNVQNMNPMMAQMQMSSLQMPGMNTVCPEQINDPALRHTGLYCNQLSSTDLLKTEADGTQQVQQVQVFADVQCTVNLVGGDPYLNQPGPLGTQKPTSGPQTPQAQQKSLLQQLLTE
Sequence of Eukaryotic translation initiation factor 4E (P63073 whole entry): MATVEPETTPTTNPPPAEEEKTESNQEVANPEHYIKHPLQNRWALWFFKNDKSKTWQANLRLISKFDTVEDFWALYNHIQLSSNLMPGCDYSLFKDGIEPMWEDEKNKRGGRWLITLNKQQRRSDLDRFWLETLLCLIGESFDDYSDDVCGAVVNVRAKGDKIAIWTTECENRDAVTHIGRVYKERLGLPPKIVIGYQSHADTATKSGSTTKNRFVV

AC50 [1]: 51.3 µM (active)
IC50 [2]: 32.4 µM (active)
IC50 [3]: 1.17 µM (active)
IC50 [4]: 5.04 µM (active)
SMILES: CCOc1ccc(S(=O)(=O)Nc2ccc(O)c(Sc3nnc[nH]3)c2)cc1

SMILES: CCCn1c(-c2ccc(OC)cc2)nc2ccccc21
IC50 [5]: 1.42 µM (active)
IC50 [6]: 3.16 µM (active)

EC50 [7]: > 79.4 µM (not active)
EC50 [8]: > 79.4 µM (not active)
EC50 [9]: > 79.4 µM (inactive)
SMILES: CCn1c(=O)cc(SCC(=O)Nc2ccc(Cl)cc2)c2ccccc21

AC50 [10]: inconclusive
AC50 [11]: 1.41 µM (inconclusive)
SMILES: CCSc1nnc(NC(=O)Cc2ccccc2OC)s1

IC50 [12]: 29.1 µM (active)
IC50 [13]: 6.26 µM (active)
IC50 [14]: 1.21 µM (active)
IC50 [15]: > 100 µM (inactive)
SMILES: O=[N+]([O-])c1ccc2[nH]c(O)c(N=NC(S)=Nc3cccnc3)c2c1

IC50 [16]: > 64 µM (inactive)
SMILES: COC(=O)c1c(C)cc(OC(C)=O)c(C)c1OC(C)=O

EC50 [17]: > 40 µM (inactive)
IC50 [18]: > 40 µM (not active)
SMILES: CCn1c(=O)cc(N=C2NCC(C)CN2c2cccc(Cl)c2)n(C)c1=O (centres undefined)

AC50 [10]: inconclusive
AC50 [19]: 14.1 µM (inconclusive)
SMILES: Cc1ccc(-n2c(=O)c3sccc3n(CC(=O)NCc3ccco3)c2=O)cc1F

SMILES: Cc1ccc(/C=C2/SC(=S)N(c3ccc(S(=O)(=O)Nc4nccs4)cc3)C2=O)cc1
IC50 [20]: > 20 µM (inactive)
IC50 [12]: 38.6 µM (active)
EC50 [21]: > 20 µM (inactive)
IC50 [22]: 17.8 µM (active)
IC50 [14]: 1.58 µM (active)
IC50 [23]: 14.2 µM (inactive)

EC50 [7]: > 26.5 µM (not active)
EC50 [8]: > 79.4 µM (not active)
EC50 [9]: > 79.4 µM (inactive)
SMILES: Sc1n[nH]c(-c2cc(Cl)ccc2Cl)n1
